According to article PMC7481839, “Switchable foldamer ion channels with antibacterial activity” (Chemical Science, 2020):
≈ marks a conversion by molar mass, not a printed value. Where a SMILES comes first, the peptide text is derived from it.

Key:
[1] = U-tube sodium picrate transport experiment; conditions: 1 mM in chloroform, 20 mM MOPS, 100 mM NaCl, pH 7.4, 25 °C, after 24 h, UV at 356 nm
Procedure: To assess if these compounds can act as cation carriers, U-tube experiments for sodium picrate transport were performed on 1, Cu(II)[1]Cl2 and Cu(II)[2]Cl2. […] Similarly, a U-tube experiment for chloride transport was performed using lucigenin.[4],[40]
5.7 Preparation of large unilamellar vesicles for CF release assays
A 50 mM 5(6)-carboxyfluorescein (CF) solution in MOPS buffer (20 mM MOPS, 100 mM NaCl, pH 7.4) was prepared by dissolving 5/6-CF in MOPS buffer, adding a sodium hydroxide (1M) solution dropwise until pH 11 was reached. The resulting solution was the slowly acidified to pH 7.4.
EYPC-cholesterol (4:1) 800 nm vesicles were prepared as described above, using the above mentioned 5(6)-carboxyfluorescein (CF) (50 mM) solution. […]
The U-tube was incubated in a water bath at 25 °C and the chloroform phase was stirred at 300 rpm during the entire experiment, ensuring efficient diffusion of any potential carrier-ion complex to the receiving phase. Aliquots (1 mL) were taken from the receiving phase and analysed for the presence of picrate by UV spectroscopy (at 356 nm). […]
Figure S11: U-tube metal picrate transport data for foldamer 1 (brown), Cu[2]Cl2 (black), Cu[1]Cl2 (green), and the control transporter, dibenzo-18-crown-6 (red). Absorbance at 356 nm. […]

[2] = HPTS assay of ionophoric activity in phospholipid vesicles; assay type: biochemical; conditions: Table S1, HPTS assay
Procedure: The membrane activity of 1, 2, Cu[1]Cl2 and Cu[2]Cl2 was assessed in phospholipid vesicle membranes using 8-hydroxypyrene-1,3,6-trisulfonate (HPTS) assays. HPTS assays can show ionophoric activity that occurs via any combination of M^+/H^+ antiport, X^–/OH^– antiport, M^+/OH^– symport and X^–/H^+ symport.
The HPTS assays of 1, 2, Cu[1]Cl2 and Cu[2]Cl2 used 1 : 4 cholesterol : egg yolk phosphatidylcholine (EYPC) vesicles in MOPS buffer (pH 7.4) with 100 mM of an appropriate salt (e.g. KCl, KBr, NaCl), following previously reported procedures.[16] The resulting normalised data were fitted to pseudo first-order rate equations as an approximation (see the ESI ^†).[32] Although the change in fluorescence after the “burst phase” is likely to arise from multiple processes, including inter-vesicle transfer of foldamers,[33] this fitting allows the relative effectiveness of each compound to be compared.
CuCl2 was added at 2 min, followed by addition of 2.2 eq. EDTA at 3 min.
5.1 Preparation of large unilamellar vesicles for HPTS assays
The HPTS assays of 1, 2, Cu[1]Cl2 and Cu[2]Cl2 used 1:4 cholesterol:egg yolk phosphatidylcholine (EYPC) vesicles in MOPS buffer (pH 7.4) with 100 mM of an appropriate salt (e.g. KCl, KBr, NaCl).5 Aliquots of 1, 2, Cu[1]Cl2 or Cu[2]Cl2 dissolved in methanol were mixed with the vesicle suspensions for 60 s before adding a base pulse to change the external pH to 8.4.6 The resulting change in HPTS fluorescence was followed for 6 min, then Triton X-100 was added at 7 min to lyse the vesicles […]. Each assay was repeated three times on new vesicles. The resulting normalized data were fitted to pseudo first-order rate equations as an approximation (see the ESI), similar to the procedure of Regen and co-workers.7 Although the change in fluorescence after the “burst phase” is likely to arise from multiple processes, including inter-vesicle transfer of foldamers,8 this fitting allows the relative effectiveness of each compound to be compared.
Egg yolk phosphatidylcholine (EYPC, 64 μmol) and cholesterol (16 μmol) were dissolved in 2 mL chloroform (spectroscopic grade). The solvent was removed under reduced pressure resulting in a thin film of lipid on the inside wall of the round bottom flask, which was dried further under vacuum for 2 hours. 1.2 mL of a trisodium 8-hydroxypyrene-1,3,6-trisulfonate (HPTS, 100 mM, pH = 7.4) dye in (3-(N-morpholino) propanesulfonic acid) buffer (20 mM MOPS, 100 mM MX (M = K or Na, X = Cl, Br or NO3− adjusted to pH 7.4 using NaOH) were added to the lipid film. Afterwards, the thin film was detached from the sides of the flask by vortex mixing. The resulting lipid suspension was then extruded 19 times through an 800 nm polycarbonate membrane in an Avestin Liposofast extruder to give a suspension of 800 nm large unilamellar vesicles. Unencapsulated HPTS dye was removed by gel permeation chromatography on PD-10 SEC columns (Sephadex G-25). Hereby 1 mL of the 800 nm vesicle suspension was diluted to 2.5 mL with 20 mM MOPS buffer solution and loaded onto the GPC column. The suspension run onto the column, followed by 3.5 mL of 20 mM MOPS buffer, which were collected, giving a stock vesicle solution of 3.5 mL (final concentration of lipids = 15.23 mM). This solution of vesicles was used directly in the HPTS experiments.
5.2 Procedure for HPTS assays
100 μL of the vesicle stock solution was diluted to 2 mL with 20 mM MOPS buffer (final lipid concentration in cuvette 0.762 mM). To this vesicle suspension was then added 20 μL of the principle compound in methanol (1 mM or 0.6 mM for Cu[2]Cl2) and the cuvette was equipped with a stirrer bar. The cuvette was […]

[3] = Solubility; assay type: physicochemical
Excerpt: Mixing 1 or 2 with CuCl2 or CuCl provided green or blue complexes respectively. […] The blue complexes from the addition of CuCl gave very broad NMR spectra even after preparing fresh samples, which was ascribed to in situ oxidation of Cu(I); Cu(I)(TPA) complexes are very efficient one electron donors and will rapidly reduce alkyl halides[27] and oxygen.[28] Furthermore these blue products gave green solids when dried (see the ESI, Fig. S2 ^†).
Although alamethicin is a very active channel former, its use in the clinic is hampered by its high haemolytic activity.[52] […] It is known that the haemolytic activity of amphipathic peptides, including alamethicin, decreases substantially on a reduction of peptide hydrophobicity and hydrophobic moment.[56]

CC(C)(C)OC(=O)C(C)(C)NC(=O)C(C)(C)NC(=O)C(C)(C)NC(=O)C(C)(C)NC(=O)C(C)(C)NC(=O)C(C)(C)NC(=O)C(C)(C)NC(=O)C(C)(C)n1cc(CN(Cc2ccccn2)Cc2ccccn2)nn1 [foldamer 1] (HELM PEPTIDE1{[CC(C)(C(=O)[*:2])n1cc(CN(Cc2ccccn2)Cc2ccccn2)nn1].[Aib].[Aib].[Aib].[Aib].[Aib].[Aib].[Aib].[CC(C)(C)O[*:1]]}$$$$V2.0)
sodium picrate transport across the bulk chloroform phase [1]: No transport across the bulk phase was observed | Apparent observed rate constant kobs, KBr ([2]; 100 mM KBr, compound 10 µM): 3.3 10−3 s−1 | Apparent observed rate constant kobs, KCl ([2]; 100 mM KCl, compound 10 µM): 3 10−3 s−1 | Apparent observed rate constant kobs, KNO3 ([2]; 100 mM KNO3, compound 10 µM): 4 10−3 s−1 | Apparent observed rate constant kobs, NaCl ([2]; 100 mM NaCl, compound 10 µM, methanol control 1 × 10−3 s−1): 4 10−3 s−1 | solubility limit [3]: 20 µM (≈ 20.4 µg/mL)
